Data reported in US12077503B2, “Substituted cyclic amides and their use as herbicides” (FMC CORPORATION, priority 2015, dated 2024).

Key:
Assay type in all cases: in vivo
[1] = tested on: corn (Zea mays); assay: Test G Post-Emergence Protocol; conditions: Zea mays, post-emergence, 312 h, read-out: Corn damage rating; for plant injury at 15.625 g/ha: 15.625 g ai/ha, evaluated after 13 days (100=total damage to plant; 0=no damage to plant); for plant injury at 62.5 g/ha: 62.5 g ai/ha; for plant injury at 62.5 g/ha / plant injury at 250 g/ha: evaluated after 13 days, 100=total damage to plant, 0=no damage to plant; for plant injury at 250 g/ha: 250 g ai/ha
Outline: (§1)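 Pot-grown seedlings, 8 days old, raised in a glasshouse at 24/16 °C day/night with 14 h light and 65% humidity, were sprayed post-emergence with test compound in acetone/water (50:50) plus 0.5% Tween 20 at 15.625, 62.5 or 250 g/ha. Damage was scored visually 13 days later on a 0–100 scale (100 = total damage).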

[2] = tested on: barnyardgrass (Echinochloa crus-galli); assay: Test G Post-Emergence Protocol; conditions: Echinochloa crus-galli, post-emergence, 312 h, read-out: Barnyardgrass damage rating; for pest or weed control at 15.625 g/ha: 15.625 g ai/ha, evaluated after 13 days (100=total damage to plant; 0=no damage to plant); for pest or weed control at 62.5 g/ha: 62.5 g ai/ha; for pest or weed control at 62.5 g/ha / pest or weed control at 250 g/ha: evaluated after 13 days, 100=total damage to plant, 0=no damage to plant; for pest or weed control at 250 g/ha: 250 g ai/ha
Outline: as §1

[3] = tested on: giant foxtail (Setaria faberi); assay: Test G Post-Emergence Protocol; conditions: Setaria faberi, post-emergence, 312 h, read-out: Foxtail, Giant damage rating; for pest or weed control at 15.625 g/ha: 15.625 g ai/ha, evaluated after 13 days (100=total damage to plant; 0=no damage to plant); for pest or weed control at 62.5 g/ha: 62.5 g ai/ha; for pest or weed control at 62.5 g/ha / pest or weed control at 250 g/ha: evaluated after 13 days, 100=total damage to plant, 0=no damage to plant; for pest or weed control at 250 g/ha: 250 g ai/ha
Outline: as §1

[4] = tested on: redroot pigweed (Amaranthus retroflexus); assay: Test G Post-Emergence Protocol; conditions: Amaranthus retroflexus, post-emergence, 312 h, read-out: Pigweed, Redroot damage rating; for pest or weed control at 15.625 g/ha: 15.625 g ai/ha, evaluated after 13 days (100=total damage to plant; 0=no damage to plant); for pest or weed control at 62.5 g/ha: 62.5 g ai/ha; for pest or weed control at 62.5 g/ha / pest or weed control at 250 g/ha: evaluated after 13 days, 100=total damage to plant, 0=no damage to plant; for pest or weed control at 250 g/ha: 250 g ai/ha
Outline: as §1

[5] = tested on: ivy-leaved morning glory (Ipomoea hederacea); assay: Test G Post-Emergence Protocol; conditions: Ipomoea, post-emergence, 312 h, read-out: Morningglory, Ivy-leaved damage rating; for pest or weed control at 15.625 g/ha: 15.625 g ai/ha, evaluated after 13 days (100=total damage to plant; 0=no damage to plant); for pest or weed control at 62.5 g/ha: 62.5 g ai/ha; for pest or weed control at 62.5 g/ha / pest or weed control at 250 g/ha: evaluated after 13 days, 100=total damage to plant, 0=no damage to plant; for pest or weed control at 250 g/ha: 250 g ai/ha
Outline: as §1

[6] = tested on: velvetleaf (Abutilon theophrasti); assay: Test G Post-Emergence Protocol; conditions: Abutilon theophrasti, post-emergence, 312 h, read-out: Velvetleaf damage rating; for pest or weed control at 15.625 g/ha: 15.625 g ai/ha, evaluated after 13 days (100=total damage to plant; 0=no damage to plant); for pest or weed control at 62.5 g/ha: 62.5 g ai/ha; for pest or weed control at 62.5 g/ha / pest or weed control at 250 g/ha: evaluated after 13 days, 100=total damage to plant, 0=no damage to plant; for pest or weed control at 250 g/ha: 250 g ai/ha
Outline: as §1

[7] = tested on: corn (Zea mays); assay: Test G Pre-Emergence Protocol; conditions: Zea mays, pre-emergence, 312 h, evaluated after 13 days; for plant injury at 15.625 g/ha: 15.625 g ai/ha; for plant injury at 15.625 g/ha / plant injury at 250 g/ha: read-out: Corn damage rating (100=total damage to plant; 0=no damage to plant); for plant injury at 62.5 g/ha: 62.5 g ai/ha, 100=total damage to plant, 0=no damage to plant, read-out: Corn damage rating; for plant injury at 250 g/ha: 250 g ai/ha
Outline: (§2)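 Under a 24/16° C day/night regime with 14 h light and 65% humidity, sown pots were sprayed after one day with compound (15.625, 62.5 or 250 g/ha; 50:50 acetone/water, 0.5% Tween 20). Damage was assessed visually 13 days later, 0 to 100.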

[8] = tested on: barnyardgrass (Echinochloa crus-galli); assay: Test G Pre-Emergence Protocol; conditions: Echinochloa crus-galli, pre-emergence, 312 h, evaluated after 13 days; for pest or weed control at 15.625 g/ha: 15.625 g ai/ha; for pest or weed control at 15.625 g/ha / pest or weed control at 250 g/ha: read-out: Barnyardgrass damage rating (100=total damage to plant; 0=no damage to plant); for pest or weed control at 62.5 g/ha: 62.5 g ai/ha, 100=total damage to plant, 0=no damage to plant, read-out: Barnyardgrass damage rating; for pest or weed control at 250 g/ha: 250 g ai/ha
Outline: as §2

[9] = tested on: giant foxtail (Setaria faberi); assay: Test G Pre-Emergence Protocol; conditions: Setaria faberi, pre-emergence, 312 h, evaluated after 13 days; for pest or weed control at 15.625 g/ha: 15.625 g ai/ha; for pest or weed control at 15.625 g/ha / pest or weed control at 250 g/ha: read-out: Foxtail, Giant damage rating (100=total damage to plant; 0=no damage to plant); for pest or weed control at 62.5 g/ha: 62.5 g ai/ha, 100=total damage to plant, 0=no damage to plant, read-out: Foxtail, Giant damage rating; for pest or weed control at 250 g/ha: 250 g ai/ha
Outline: as §2

[10] = tested on: redroot pigweed (Amaranthus retroflexus); assay: Test G Pre-Emergence Protocol; conditions: Amaranthus retroflexus, pre-emergence, 312 h, evaluated after 13 days; for pest or weed control at 15.625 g/ha: 15.625 g ai/ha; for pest or weed control at 15.625 g/ha / pest or weed control at 250 g/ha: read-out: Pigweed, Redroot damage rating (100=total damage to plant; 0=no damage to plant); for pest or weed control at 62.5 g/ha: 62.5 g ai/ha, 100=total damage to plant, 0=no damage to plant, read-out: Pigweed, Redroot damage rating; for pest or weed control at 250 g/ha: 250 g ai/ha
Outline: as §2

[11] = tested on: ivy-leaved morning glory (Ipomoea hederacea); assay: Test G Pre-Emergence Protocol; conditions: Ipomoea, pre-emergence, 312 h, evaluated after 13 days; for pest or weed control at 15.625 g/ha: 15.625 g ai/ha; for pest or weed control at 15.625 g/ha / pest or weed control at 250 g/ha: read-out: Morningglory, Ivy-leaved damage rating (100=total damage to plant; 0=no damage to plant); for pest or weed control at 62.5 g/ha: 62.5 g ai/ha, 100=total damage to plant, 0=no damage to plant, read-out: Morningglory, Ivy-leaved damage rating; for pest or weed control at 250 g/ha: 250 g ai/ha
Outline: as §2

[12] = tested on: velvetleaf (Abutilon theophrasti); assay: Test G Pre-Emergence Protocol; conditions: Abutilon theophrasti, pre-emergence, 312 h, evaluated after 13 days; for pest or weed control at 15.625 g/ha: 15.625 g ai/ha; for pest or weed control at 15.625 g/ha / pest or weed control at 250 g/ha: read-out: Velvetleaf damage rating (100=total damage to plant; 0=no damage to plant); for pest or weed control at 62.5 g/ha: 62.5 g ai/ha, 100=total damage to plant, 0=no damage to plant, read-out: Velvetleaf damage rating; for pest or weed control at 250 g/ha: 250 g ai/ha
Outline: as §2

| SMILES | plant injury at 15.625 g/ha [1] | plant injury at 62.5 g/ha [1] | plant injury at 250 g/ha [1] | pest or weed control at 15.625 g/ha [2] | pest or weed control at 62.5 g/ha [2] | pest or weed control at 250 g/ha [2] | pest or weed control at 15.625 g/ha [3] | pest or weed control at 62.5 g/ha [3] | pest or weed control at 250 g/ha [3] | pest or weed control at 15.625 g/ha [4] | pest or weed control at 62.5 g/ha [4] | pest or weed control at 250 g/ha [4] | pest or weed control at 15.625 g/ha [5] | pest or weed control at 62.5 g/ha [5] | pest or weed control at 250 g/ha [5] | pest or weed control at 15.625 g/ha [6] | pest or weed control at 62.5 g/ha [6] | pest or weed control at 250 g/ha [6] | plant injury at 15.625 g/ha [7] | plant injury at 62.5 g/ha [7] | also measured |
| --- | --- | --- | --- | --- | --- | --- | --- | --- | --- | --- | --- | --- | --- | --- | --- | --- | --- | --- | --- | --- | --- |
| COc1cc(C2CN(C)C(=O)C2C(=O)Nc2cccc(F)c2F)cc(OC)c1F (stereo not drawn) [Compound 1711] | 0% | 10% | 40% | 30% | 70% | 80% | 70% | 80% | 80% | 0% | 0% | 0% | 10% | 30% | 70% | 0% | 0% | 0% | 0% | 0% | plant injury at 250 g/ha [7]: 20%; pest or weed control at 15.625 g/ha [8]: 30%; pest or weed control at 62.5 g/ha [8]: 10%; pest or weed control at 250 g/ha [8]: 80%; pest or weed control at 15.625 g/ha [9]: 70%; pest or weed control at 62.5 g/ha [9]: 70%; pest or weed control at 250 g/ha [9]: 90%; pest or weed control at 15.625 g/ha [10]: 0%; pest or weed control at 62.5 g/ha [10]: 0%; pest or weed control at 250 g/ha [10]: 0%; pest or weed control at 15.625 g/ha [11]: 0%; pest or weed control at 62.5 g/ha [11]: 10%; pest or weed control at 250 g/ha [11]: 10%; pest or weed control at 15.625 g/ha [12]: 0%; pest or weed control at 62.5 g/ha [12]: 0%; pest or weed control at 250 g/ha [12]: 0% |
| Cc1cc(C2CN(C)C(=O)C2C(=O)Nc2cccc(F)c2F)cc(C)c1F (stereo not drawn) [Compound 1712] | 40% | 70% | 70% | 50% | 80% | 90% | 80% | 80% | 80% | 0% | 20% | 20% | 10% | 30% | 70% | 10% | 10% | 40% | 0% | 10% | plant injury at 250 g/ha [7]: 70%; pest or weed control at 15.625 g/ha [8]: 60%; pest or weed control at 62.5 g/ha [8]: 80%; pest or weed control at 250 g/ha [8]: 90%; pest or weed control at 15.625 g/ha [9]: 80%; pest or weed control at 62.5 g/ha [9]: 90%; pest or weed control at 250 g/ha [9]: 90%; pest or weed control at 15.625 g/ha [10]: 10%; pest or weed control at 62.5 g/ha [10]: 0%; pest or weed control at 250 g/ha [10]: 10%; pest or weed control at 15.625 g/ha [11]: 0%; pest or weed control at 62.5 g/ha [11]: 0%; pest or weed control at 250 g/ha [11]: 20%; pest or weed control at 15.625 g/ha [12]: 0%; pest or weed control at 62.5 g/ha [12]: 0%; pest or weed control at 250 g/ha [12]: 20% |
